Experimental data taken from patent US20080287377A1, “Composition Based on Triethyl Citrate for the Prevention of Enzymatic Hydrolysis of Triglycerides” (priority 2005, published 2008).
Structures can show the parent of a compound that is named as a salt.

Molecular target: T1, porcine lipase (Sus scrofa, UniProt P00591)
T1 sequence (P00591 1-450): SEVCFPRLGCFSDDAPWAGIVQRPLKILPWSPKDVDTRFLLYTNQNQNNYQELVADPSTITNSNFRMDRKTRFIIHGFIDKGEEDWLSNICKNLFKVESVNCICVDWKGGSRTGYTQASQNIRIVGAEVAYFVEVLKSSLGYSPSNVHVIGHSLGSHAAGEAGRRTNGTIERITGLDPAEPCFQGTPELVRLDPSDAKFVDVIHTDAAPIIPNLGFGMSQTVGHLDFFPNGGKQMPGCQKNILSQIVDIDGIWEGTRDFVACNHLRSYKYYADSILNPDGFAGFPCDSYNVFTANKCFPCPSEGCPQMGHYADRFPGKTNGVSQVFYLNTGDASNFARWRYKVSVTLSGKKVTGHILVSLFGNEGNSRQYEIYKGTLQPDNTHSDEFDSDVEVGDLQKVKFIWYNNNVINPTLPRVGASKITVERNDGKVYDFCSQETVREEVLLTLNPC
Assay: Inhibition of the lyses of triglycerides (olive oil) by porcine lipase, colorimetric test of released fatty acids
Assay type: biochemical
Details: for Absorbance Mean: 37° C., read at 546 nm
Protocol: The inhibition of the lyses of triglycerides in the presence of porcine lipase was evaluated by analysing the released fatty acids using a colorimetric test.
The test consists in two distinct phases, one enzymatic reaction test which enables the lyses of triglycerides to leave the olive oil in the presence of porcine lipase and, successively, a colorimetric essay to determine the released fatty acids formed.
The porcine lipase, in the presence of the substrata (olive oil) and in opportune incubation conditions, catalyzes the following reaction:
Triglycerides+H2O→Diglycerides+Fatty acids
The dose of fatty acids allows indirect evaluation of the enzymatic activity and the lyses of triglycerides.
To evacuate the inhibition activity of the substance being analysed, three different concentrations of the substance under examination (5%, 1% and 0.5% in water) were tested at two different times (15 and 30 minutes).
In order to allow complete solubility, the 5% concentration was left at room temperature for 72 hours.
The porcine lipase was dissolved in deionised water at 4° C. just before use at the concentrations of 2000 U/ml. As a source of triglycerides olive oil was used. The buffer used for the reaction is Tris HCl 200 mM, pH=7.7 at 37° C. The test was conducted in the presence and in the absence of substance to be tested at different concentrations.
The following reagents are incubated at 37° C.: deionised water (150 μL), buffer (100 μL), olive oil (300 μL).
In the case of the sample (TEC 5%, 1% and 0.5%), the water was substituted with 150 μL of the solution to be tested.
Subsequent, the enzymatic solution (200 μL) was added and the reaction was allowed to develop for 30 and 15 minutes at a temperature of 37° C. On termination of the 15 and 30 minute periods, the reaction was blocked by adding 300 μL of ethanol at 95%.
50 μL of the solution containing the released fatty acids formed are used for the calorimetric dose, carried out using the special kit, that provides the necessary reagents to develop the reaction described below.
In the presence of the Acyl-CoA enzyme synthesis (AcylCS) and adenosin-5′-triphosphate (ATP) the released fatty acids are converted into acyl-CoA, adenosin-5′-monophosphate (AMP) and pyrophosphate. Acyl-CoA reacts with oxygen (O2) in the presence of Acyl coA oxidase (ACOD) forming 2,3-enoylcoenzymeA. The resulting H202 converts the 2,4,6-tribromo-3-hydroxy-benzoic acid (TBHB) and the 4-aminoantipyrine (4-AA) into a red stain in the presence of peroxidase (POD).
The samples are read at the 546 nm wave length, before and after the addition of ACOD and the reaction is conducted at room temperature.
Fatty acids+CoA+ATP→acyl-CoA+AMP+pyrophosphate
Acyl-CoA+O2→enoyl-coA+H202

[1] = TEC 0.5% in water, 15 min reaction
[2] = TEC 0.5% in water, 30 min reaction
[3] = TEC 1% in water, 15 min reaction
[4] = TEC 1% in water, 30 min reaction
[5] = TEC 5% in water, 15 min reaction
[6] = TEC 5% in water, 30 min reaction

- fatty acids reduction compared to control (%) [1]: 18.04%
- Absorbance Mean [1]: 0.584
- fatty acids reduction compared to control (%) [2]: 11.10%
- Absorbance Mean [2]: 0.084
- fatty acids reduction compared to control (%) [3]: 17.12%
- Absorbance Mean [3]: 0.5905
- fatty acids reduction compared to control (%) [4]: 12.70%
- Absorbance Mean [4]: 0.083
- fatty acids reduction compared to control (%) [5]: 44.84%
- Absorbance Mean [5]: 0.393
- fatty acids reduction compared to control (%) [6]: 81.50%
- Absorbance Mean [6]: 0.018
- protection of the triglycerides from the enzymatic hydrolysis exercised by the lipases (maximum percentage according to the method followed, from the absorbance values): up to 85%
Structure (SMILES): CCOC(=O)CC(O)(CC(=O)OCC)C(=O)OCC [TEC, triethyl citrate]
